In patent US10150737B2, “Compounds for controlling arthropods” (priority 2013, dated 2018):

Legend:
Lucilia cuprina = Lucilia cuprina test; type: in vivo; conditions: application rate 100 ppm; L1 larvae; after 2 days
How it was run: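 Mortality (%) of first-instar blowfly larvae, about 20 per vessel, recorded 2 days after exposure to compound-treated minced horsemeat. Compound dissolved in dimethyl sulphoxide, then water-diluted to the desired concentration.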

[1] = test system: Boophilus microplus Parkhurst strain, SP-resistant; assay: Boophilus microplus - dip test; type: in vivo; conditions: application rate 100 ppm; dip of engorged adult female ticks; after 7 days
How it was run: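 Compound dissolved in DMSO, diluted with water, and used to fully wet groups of 8-10 engorged female cattle ticks (SP-resistant Parkhurst strain). Fertile egg laying assessed at 7 days, doubtful eggs held ~42 days until hatch; 0% means all eggs fertile.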

Tetranychus urticae = Tetranychus urticae - spray test, OP-resistant; type: in vivo; conditions: bean leaf discs, after 6 days
How it was run: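 Mortality (%) read on day 6 after spraying Phaseolus vulgaris leaf discs carrying all mite stages with formulations at the desired concentration. Formulation: active ingredient in acetone plus dimethylformamide, made up with emulsifier-containing water (1000 ppm alkylaryl polyglycol ether).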

Phaedon cochleariae = Phaedon cochleariae - spray test; type: in vivo; conditions: larvae on Chinese cabbage leaf discs, after 7 days
How it was run: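 Mortality of mustard beetle larvae was scored as % at day 7 on Brassica pekinensis leaf discs. Discs had been treated by spraying at the desired concentration, using an acetone/dimethylformamide solution diluted in water with 1000 ppm alkylaryl polyglycol ether, and dried before larvae were added.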

Musca domestica = Musca domestica test; type: in vivo; conditions: application rate 100 ppm; adult houseflies; after 2 days
How it was run: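 Water-diluted DMSO stock of compound, mixed onto a sugar-treated sponge, served as the sole exposure route for ten adult houseflies. Kill percentage scored at 2 days.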

Boophilus microplus = Boophilus microplus - injection test; type: in vivo; conditions: application rate 20 μg/animal; injection into engorged adult female ticks; after 7 days
How it was run: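 Five engorged adult female cattle ticks each received a 1 μl abdominal injection of compound solution in dimethyl sulphoxide. Fertile egg laying was assessed at 7 days, with doubtful eggs incubated about 42 days until hatch. 0% efficacy means all eggs fertile.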

Spodoptera frugiperda = Spodoptera frugiperda - spray test; type: in vivo; conditions: caterpillars on maize leaf discs, after 7 days
How it was run: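 Percent mortality of Spodoptera frugiperda caterpillars scored 7 days after placing them on dried maize leaf discs sprayed at the desired concentration. Spray formulation: compound dissolved in acetone/dimethylformamide, made up with water containing 1000 ppm emulsifier.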

Ctenocephalides felis [2] = assay: Ctenocephalides felis - oral test; type: in vivo; conditions: application rate 100 ppm in citrated cattle blood; after 2 days
How it was run: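 Roughly 20 unfed adult C. felis imbibe compound-dosed citrated cattle blood (DMSO formulation) across parafilm from a cylinder above their gauze chamber; percentage mortality recorded at day 2.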

Rhipicephalus sanguineus = Rhipicephalus sanguineus - in vitro contact tests with adult brown dog ticks; type: in vivo; conditions: application rate 5 μg/cm2; after 48 h; ticks dead or moribund
How it was run: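 Efficacy, scored after 48 h, is the % of adult ticks dead or moribund, i.e. unable to climb away on a 45-50° C hotplate within 5 min. Tubes held 5-10 ticks in the dark at room temperature, on an acetone-applied coating of 5 μg/cm^2 (900 ppm solution).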

Ctenocephalides felis [3] = assay: Ctenocephalides felis - in vitro contact tests with adult cat fleas; type: in vivo; conditions: application rate 5 μg/cm2 (=500 g/ha); after 48 h; fleas dead or moribund
How it was run: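 Efficacy, as percentage of fleas dead or moribund, was scored at 48 h by knocking fleas to the tube base. Exposure was by contact with a dried acetone film of compound at 5 μg/cm^2 area dose; 5–10 adults per tube, room temperature, ambient humidity.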

[4] = logP determination by HPLC on a reversed-phase column (C18); type: physicochemical; conditions: for logP^a): HPLC-MS method a); for log P: HPLC-MS
Amblyomma hebraeum = assay: Amblyomma hebaraeum test (tick nymphs, immersion); type: in vivo; conditions: application rate 100 ppm; tick nymphs immersed one minute; after 42 days
How it was run: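 Mortality (%) is read 42 days post-treatment, where 0% means no ticks and 100% all ticks killed. Nymphs were dipped for 1 min into the test dilution (DMSO stock diluted with water) and afterwards stored on filter paper under controlled climate.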

Myzus persicae = Myzus persicae - spray test; type: in vivo; conditions: Chinese cabbage leaf discs, after 6 days
How it was run: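 Mortality of the green peach aphid, as % killed, was read 6 days after spraying infested Brassica pekinensis leaf discs. Compound formulated in acetone/dimethylformamide and made up with emulsifier-containing (1000 ppm) water.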

[5] = reversed-phase column (C18), Table I-T3

Compound	efficacy (kill) (Lucilia cuprina)	efficacy (laying of fertile eggs) [1]	efficacy (Tetranychus urticae; application rate 500 g/ha)	efficacy (Phaedon cochleariae; application rate 500 g/ha)	efficacy (kill) (Musca domestica)	efficacy (laying of fertile eggs) (Boophilus microplus)	efficacy (Spodoptera frugiperda; application rate 500 g/ha)	efficacy (kill) (Ctenocephalides felis [2])	efficacy (Rhipicephalus sanguineus)	efficacy (Ctenocephalides felis [3])	logP^a) ([4]; reversed-phase column (C18))	log P [4, 5]	efficacy (kill) (Amblyomma hebraeum)	efficacy (Myzus persicae; application rate 100 g/ha)	efficacy (Myzus persicae; application rate 500 g/ha)	efficacy (Tetranychus urticae; application rate 100 g/ha)	efficacy (Phaedon cochleariae; application rate 100 g/ha)	efficacy (Spodoptera frugiperda; application rate 100 g/ha)	logP^a) [4]	logP^a) [4, 5]
O=C(NC1CC1)c1cc(-c2cnn(-c3c(Cl)cc(C(F)(C(F)(F)F)C(F)(F)F)cc3C(F)(F)F)c2)cnc1Cl [I-T3-112]	100%	100%	100%	100%	100%	100%	100%	100%	100%	100%	4.0	4.0	100%	100%						
CCc1cc(C(F)(C(F)(F)F)C(F)(F)F)cc(C)c1-n1cc(-c2cnc(Cl)c(C(=O)NC3CC3)c2)cn1 [I-T3-109]	100%	100%	100%	100%	100%	100%	100%	100%	100%	100%	4.2	4.2	100%		90%					
Cc1cc(C(F)(C(F)(F)F)C(F)(F)F)cc(C(F)(F)F)c1-n1cc(-c2cnc(Cl)c(C(=O)NC3CC3)c2)cn1 [I-T3-106]	100%	100%	100%	100%	100%	100%	100%	100%	100%	100%	4.0	4.0	100%		100%					
Cc1cc(C(F)(C(F)(F)F)C(F)(F)F)cc(C(F)(F)F)c1-n1cc(-c2ccc(Cl)c(C(=O)NC3(C#N)CC3)c2)cn1 [I-T3-55]	100%	100%			100%	100%		100%	100%	100%			100%	100%		100%	100%	100%	4.3	4.3
O=C(NC1CC1)c1cc(-c2cnn(-c3c(Cl)cc(C(F)(C(F)(F)F)C(F)(F)F)cc3OC(F)(F)F)c2)ccc1Cl [I-T3-162]	100%	100%			100%	100%		100%	100%	100%	4.6	4.6	100%	100%		100%	100%	100%		
Cc1ncc(-c2cnn(-c3c(Cl)cc(C(F)(C(F)(F)F)C(F)(F)F)cc3Cl)c2)cc1C(=O)NC1CC1 [I-T3-91]	100%	100%	100%	100%	100%	100%	100%	100%	100%	100%		3.3	100%		90%				3.3	
N#CC1(NC(=O)c2cc(-c3cnn(-c4c(Cl)cc(C(F)(C(F)(F)F)C(F)(F)F)cc4Cl)c3)cnc2Cl)CC1 [I-T3-43]	100%	100%	100%	100%	100%	100%	100%	100%	80%	100%			100%		100%				3.8	3.8
Cc1cc(C(F)(C(F)(F)F)C(F)(F)F)cc(C(F)(F)F)c1-n1cc(-c2cnc(C)c(C(=O)NC3CC3)c2)cn1 [I-T3-117]	100%	100%	90%	100%	100%	100%	100%	100%	100%	100%	3.5	3.5	100%		90%					
O=C(NC1CC1)c1cc(-c2cnn(-c3c(Cl)cc(C(F)(F)F)cc3Cl)c2)cnc1Cl [I-T3-98]	100%	100%	100%	100%	90%	100%	100%	100%	100%	100%		3.1	100%	90%					3.1	
